Source: patent publication US20230210891A1, “POLYSACCHARIDE COMPOSITIONS AND THERAPEUTIC GELS” (The University of Birmingham, priority 2020, published 2023)
“Also recorded” adds a separate entry of the source.

Experiments:
[1] = system: rat experimental model of glaucoma; assay: Study 2: intraocular pressure in rat experimental model of glaucoma (IC TGFβ1); assay type: in vivo; details: 10 µl eye drop twice a day, day 14 to 28
Protocol: A rat experimental model of glaucoma was used. All rats received twice weekly intracameral (IC) injections of 3.5 µl 5 µg/ml TGFβ1 from the start of the experiment (day 0) until the end (day 28). This establishes the experimental glaucoma model.
Intraocular pressure (IOP) measures were taken twice weekly using a rebound tonometer, between the hours of 9-11am (to reduce circadian fluctuations in IOP) and before TGFβ injections were administered.
On day 14 rats then also received a single 10 µl eye drop (ED) of either a composition of the invention or a composition representing the standard of care. The eyedrops were administered by pipette, twice a day, every day between day 14 and day 28. Gellan fluid gels were prepared as describe above, and the various sulphated polysaccharides investigated (dextran sulphate, fucoidan, or heparan sulphate) were mixed into the fluid gel at a concentration of 1 mg/ml prior to administration as a single formulation eye drop.
The most common eye drop prescribed clinically for the treatment of glaucoma is latanoprost 50 µg/ml (Xalatan®). Therefore, this treatment was used in this study for the standard of care (SOC).
The groups investigated in the study were as follows: […]

Collagen - Rat tail = target: T1, Collagen - Rat tail (Rattus norvegicus, UniProt P02454+P02466); assay: Collagen fibrillogenesis assay (turbidity, 405 nm plate reader); assay type: biochemical; details: for inhibition of collagen fibrillogenesis / collagen fibril formation: increasing doses of polymer
T1 construct: purchased Corning; host or cells: rat tail
Protocol: Collagen fibrillogenesis was undertaken using collagen acquired from Corning to assess the ability of carrageenans with different degrees of sulphation, gellan gum (LA) and heparan sulphate on their ability to alter fibrillogenesis.
• PBS - Dulbecco’s PBS pH 7.4 • Carrageenans (iota and kappa) (Sigma) • (CGLA) (Kelcogel; Lot #: 5C1623A) • Heparan sulphate (Tinzaparin - mw ~ 9000) • Collagen - Rat tail - Corning 4.04 mg/ml • Deionised water
1. Preparation of stock solutions: • a. A 0.2% (w/v) solution of both carrageenans, gellan and heparan in water were prepared. (0.1 g polymer in 50 ml water) • b. Mixtures were stirred until fully dispersed/hydrated. (prevent water loss by covering the beaker)
2. Preparation of Buffers: • a. PBS diluent buffer; • i. To 200 ml deionised water add sodium phosphate (0.35 g) (0.348 g)and sodium chloride (2.05 g) (2.061 g) • ii. Adjust pH to 7.40 and adjust final volume to 250 ml. • iii. Store at room temperature. • b. PBS reaction buffer; • i. To 200 ml deionised water add sodium phosphate (2.07 g) (2.081 g) and sodium chloride (4.09 g) (4.091 g) • ii. Adjust pH to 7.40. • iii. Add deionised water to create a final volume of 250 ml. • iv. Store at room temp.
3. Collagen fibrillogenesis assay: • a. Pipette […] of buffer (PBS) into rows A and B for blanks. • b. Standard curve generated in a dilution plate. Add 150 ml of each preparation into C1, D1 and E1. • c. Add 150 mL of sample to rows F1, G1 and H1. • d. Add […] of buffer (PBS) to the additional columns 2 to 12. • e. Using a multi-channel pipette, preform a 2-fold dilution by transferring […] from column 1 to column 2. Continue serial diluting through to column 12. Discard the extra […] from column 12. • f. Calculate volume of collagen needed to make 10 ml (enough for 1 plate) at a concentration of […] in chilled water and gently mix.
Target conc. (0.8 mg/ml)Collagen stock conc. in mg/ml × 10=ml of collagen required
10 ml- ?ml of collagen required= ??ml of water required • a. Add […] of collagen to each row (B to H). • b. Add 150 ml of phosphate buffer to all of the wells. • c. Incubate for 2-4 hrs at room temperature and analysed using 405 nm plate reader. (correct for the plate by using 570 nm reference)
Each sample was replicated 3 times, two polymers in each plate (2 plates total). Collagen standard and pbs only were obtained on each plate.

T1 sequence (P02454 152-1207 limits assumed): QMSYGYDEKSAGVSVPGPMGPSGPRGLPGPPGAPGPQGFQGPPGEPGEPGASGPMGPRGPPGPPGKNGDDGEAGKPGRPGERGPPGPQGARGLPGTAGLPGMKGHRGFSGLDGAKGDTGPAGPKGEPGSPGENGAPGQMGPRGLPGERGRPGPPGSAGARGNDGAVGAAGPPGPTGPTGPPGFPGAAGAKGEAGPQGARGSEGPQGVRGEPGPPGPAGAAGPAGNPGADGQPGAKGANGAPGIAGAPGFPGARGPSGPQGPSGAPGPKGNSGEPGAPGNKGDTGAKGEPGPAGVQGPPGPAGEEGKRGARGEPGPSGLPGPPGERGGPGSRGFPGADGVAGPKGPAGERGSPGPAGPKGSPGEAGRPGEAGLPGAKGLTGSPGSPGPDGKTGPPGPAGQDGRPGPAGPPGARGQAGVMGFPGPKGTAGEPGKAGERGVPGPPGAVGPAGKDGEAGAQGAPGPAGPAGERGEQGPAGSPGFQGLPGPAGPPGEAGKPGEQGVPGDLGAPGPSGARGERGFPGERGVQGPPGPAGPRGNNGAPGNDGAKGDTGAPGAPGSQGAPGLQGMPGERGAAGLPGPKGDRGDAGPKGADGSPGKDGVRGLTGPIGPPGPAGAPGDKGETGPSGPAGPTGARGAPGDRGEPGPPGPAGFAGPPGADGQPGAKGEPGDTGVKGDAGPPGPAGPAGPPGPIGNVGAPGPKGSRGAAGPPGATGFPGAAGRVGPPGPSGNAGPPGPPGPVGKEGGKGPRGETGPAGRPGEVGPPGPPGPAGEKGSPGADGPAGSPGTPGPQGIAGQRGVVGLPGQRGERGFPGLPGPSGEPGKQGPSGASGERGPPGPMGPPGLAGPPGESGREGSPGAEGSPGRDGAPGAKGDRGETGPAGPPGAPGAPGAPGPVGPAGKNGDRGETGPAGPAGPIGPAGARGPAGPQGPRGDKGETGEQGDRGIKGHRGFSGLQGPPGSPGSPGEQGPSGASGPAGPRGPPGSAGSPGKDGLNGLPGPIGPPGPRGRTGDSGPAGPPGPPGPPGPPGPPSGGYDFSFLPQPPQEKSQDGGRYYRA
T1 sequence (P02466 86-1125 limits assumed): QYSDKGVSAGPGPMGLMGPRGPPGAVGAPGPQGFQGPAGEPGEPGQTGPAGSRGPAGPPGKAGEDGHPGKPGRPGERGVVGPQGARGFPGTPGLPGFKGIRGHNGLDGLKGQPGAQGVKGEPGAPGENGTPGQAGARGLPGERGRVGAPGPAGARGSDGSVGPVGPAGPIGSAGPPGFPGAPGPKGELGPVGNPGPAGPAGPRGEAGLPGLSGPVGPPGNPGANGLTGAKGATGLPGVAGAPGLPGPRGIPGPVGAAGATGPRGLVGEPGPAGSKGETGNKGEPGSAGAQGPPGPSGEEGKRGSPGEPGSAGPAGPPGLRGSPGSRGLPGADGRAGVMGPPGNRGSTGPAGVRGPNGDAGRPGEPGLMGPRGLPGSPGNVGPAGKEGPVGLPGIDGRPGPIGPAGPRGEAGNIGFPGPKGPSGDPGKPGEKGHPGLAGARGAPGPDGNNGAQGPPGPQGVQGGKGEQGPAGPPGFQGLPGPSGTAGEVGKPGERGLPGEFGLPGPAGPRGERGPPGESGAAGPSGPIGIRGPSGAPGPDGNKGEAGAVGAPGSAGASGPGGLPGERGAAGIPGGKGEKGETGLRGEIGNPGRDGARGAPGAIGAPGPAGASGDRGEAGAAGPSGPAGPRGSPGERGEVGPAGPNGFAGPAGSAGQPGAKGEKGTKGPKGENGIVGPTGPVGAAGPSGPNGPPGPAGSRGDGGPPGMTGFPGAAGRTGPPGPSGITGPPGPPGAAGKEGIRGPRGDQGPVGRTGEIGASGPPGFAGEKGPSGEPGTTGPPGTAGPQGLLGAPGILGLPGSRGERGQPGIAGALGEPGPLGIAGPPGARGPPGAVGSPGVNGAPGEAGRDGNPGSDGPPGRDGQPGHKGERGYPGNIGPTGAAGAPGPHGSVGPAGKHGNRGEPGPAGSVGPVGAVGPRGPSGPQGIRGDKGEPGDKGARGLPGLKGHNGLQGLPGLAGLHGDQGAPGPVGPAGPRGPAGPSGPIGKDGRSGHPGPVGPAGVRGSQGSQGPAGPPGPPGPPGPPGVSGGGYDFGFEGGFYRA

## CC(C)OC(=O)CCC/C=C\C[C@@H]1[C@@H](CC[C@@H](O)CCc2ccccc2)[C@H](O)C[C@@H]1O [SOC, latanoprost]
[1]
  IOP compared to glaucomatous eyes without any treatment: significantly reduced IOP

## dextran sulphate
Collagen - Rat tail
  inhibition of collagen fibrillogenesis / collagen fibril formation: dose-dependent ability to inhibit collagen fibrillogenesis

## gellan
Collagen - Rat tail
  dose required to achieve a 50% reduction in turbidity (rank order; higher degree of sulphonation requires lower dose): lota > lambda > gellan

## kappa carrageenan
Collagen - Rat tail
  inhibition of collagen fibrillogenesis / collagen fibril formation: inhibit collagen fibril formation

## heparan sulphate
Collagen - Rat tail
  inhibition of collagen fibrillogenesis / collagen fibril formation: inhibit collagen fibrillogenesis (indicative of an anti-fibrotic activity) in a dose-dependent manner; also recorded: inhibit collagen fibril formation

## iota carrageenan
Collagen - Rat tail
  dose required to achieve a 50% reduction in turbidity (rank order; higher degree of sulphonation requires lower dose): lota > lambda > gellan
  inhibition of collagen fibrillogenesis / collagen fibril formation: inhibit collagen fibril formation

## carrageenan
Collagen - Rat tail
  inhibition of collagen fibrillogenesis / collagen fibril formation: inhibit collagen fibrillogenesis (indicative of an anti-fibrotic activity) in a dose-dependent manner
